“And” between values parts separate entries of the source, which are not always exact repeats. Equal values may be shown once.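 In this assay, cells in 96-well plates receive the compound at five concentrations for 48 hours. Endpoints are linearly interpolated between the surrounding concentrations. GI50 = concentration required for 50% inhibition of growth. TGI: concentration producing complete growth inhibition.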
Tests used:
Assay in all cases: NCI tumour cell line growth inhibition, 48 h
KM12 colon = system: KM12 colon
786-0 renal = system: 786-0 renal
COLO 205 colon = system: COLO 205 colon
U251 CNS = system: U251 CNS
HCT-15 colon = system: HCT-15 colon
SN12C renal = system: SN12C renal
LOX IMVI melanoma = system: LOX IMVI melanoma
MOLT-4 leukemia = system: MOLT-4 leukemia
OVCAR-3 ovarian = system: OVCAR-3 ovarian
UO-31 renal = system: UO-31 renal

Row | SMILES | GI50 (KM12 colon) | TGI (KM12 colon) | GI50 (786-0 renal) [µM] | TGI (786-0 renal) [µM] | GI50 (COLO 205 colon) | TGI (COLO 205 colon) | GI50 (U251 CNS) | TGI (U251 CNS) | GI50 (HCT-15 colon) | TGI (HCT-15 colon) | GI50 (SN12C renal) [µM] | TGI (SN12C renal) | GI50 (LOX IMVI melanoma) | GI50 (MOLT-4 leukemia) | TGI (MOLT-4 leukemia) | GI50 (OVCAR-3 ovarian) | TGI (OVCAR-3 ovarian) | TGI (LOX IMVI melanoma) [µM] | GI50 (UO-31 renal) [µM] | TGI (UO-31 renal) [µM]
1 | CC1[C@@H]2CC=C3[C@H]4CCC5Cc6nc7c(nc6C[C@@]5(C)C4CC(=O)[C@]32CO[C@]12OC(C)(C)CC2O)CC1CC[C@@H]2C3=C[C@H]4O[C@@]5(O[C@@](C)(CO)C[C@@H]5O)C(C)[C@@]4(O)[C@]3(C)[C@@H](O)CC2[C@]1(C)C7 (stereo partly specified) | 0.00188 µM and 0.000966 µM | 0.0788 µM and 0.0848 µM | 0.000168 | 0.0303 | 0.00217 µM and 0.00857 µM | 0.00721 µM and 0.0301 µM | 0.000183 µM and 0.000365 µM | 0.129 µM and 0.0461 µM | 0.0041 µM and 0.00763 µM | 0.102 µM and 0.129 µM | 0.295 | 0.906 µM and > 3.65 µM | 0.000361 µM and 0.000576 µM | 0.000203 µM and 0.000365 µM | 0.00156 µM and 0.00157 µM | 0.0713 µM and 0.498 µM | 0.62 µM and 3.33 µM | – | – | –
2 | CC#CC#C/C(=C/C=CC(=O)OC)SC | – | > 100 µM | – | > 100 | – | > 100 µM | – | > 100 µM | – | > 100 µM | – | > 100 µM | – | – | > 100 µM | – | – | > 100 | – | –
3 | COC(=O)c1c2c(c(C)[n+]([O-])c1C)C(=O)C(NCc1ccc(O)cc1)=CC2=O | 1.7 µM | 4.1 µM | 2.11 | 4.87 | 0.579 µM | 2.19 µM | 1.77 µM | 5.26 µM | 1.43 µM | 3.18 µM | 1.23 | 2.56 µM | 0.938 µM | – | – | 0.266 µM | 0.82 µM | 2.24 | 1.53 | 3.06
4 | CCN(CC)C(=O)CC12CCCCC1=Nc1ccccc12 (stereo unspecified) | – | > 100 µM | – | > 100 | – | > 100 µM | – | > 100 µM | – | > 100 µM | – | – | – | – | > 100 µM | – | > 100 µM | > 100 | – | –

From PubChem BioAssay (NCI)
